Measurements taken from US11952346B2, “Modulators of mas-related G-protein receptor X2 and related products and methods” (Escient Pharmaceuticals, Inc., priority 2020, dated 2024).

Biological target: T1, human MRGPRX2 (Homo sapiens, UniProt Q96LB1)
T1 construct: expressed in transfected cells
T1 sequence (Q96LB1 1-330): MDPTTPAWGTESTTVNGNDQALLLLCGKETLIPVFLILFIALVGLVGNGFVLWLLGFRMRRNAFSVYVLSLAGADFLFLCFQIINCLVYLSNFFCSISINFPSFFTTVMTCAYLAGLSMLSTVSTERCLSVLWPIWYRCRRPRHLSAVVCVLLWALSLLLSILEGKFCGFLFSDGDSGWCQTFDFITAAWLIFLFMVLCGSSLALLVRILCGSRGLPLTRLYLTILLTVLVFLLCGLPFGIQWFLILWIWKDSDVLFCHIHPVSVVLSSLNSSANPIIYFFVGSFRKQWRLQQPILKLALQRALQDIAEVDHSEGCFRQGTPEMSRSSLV
Experiment: MRGPRX2 antagonist activity, IP-One HTRF assay in CHO cells expressing human MRGPRX2 versus Cortistatin-14
Type: cell-based
Settings: CHO cells stably expressing human MRGPRX2; versus 0.3 uM Cortistatin-14 agonist; IP-1 HTRF readout; read-out: MRGPR2 Antagonist Activity
Protocol: CHO cells stably transfected to express human MRGPRX2 were maintained in an incubator at 37° C. with 5% CO2 and grown in F12 (HAM) media with 10% fetal bovine serum (FBS), 1% Glutamax, 1% penicillin/streptomycin, 800 μg/mL Geneticin (G418), and 300 μg/mL Hygromycin B. Cells were plated in a 384-well assay plate at 20,000 cells per well in 12 μL of Opti-MEM and kept in an incubator overnight. On the day of the assay, compounds solubilized at 10 mM in DMSO were added as a 10-point curve (30 uM final top concentration with 1:3 serial dilutions) using a Tecan D300E digital dispenser. Agonists were diluted in assay buffer (final concentrations of 5.7 mM Tris-HCl, 43 mM NaCl, 50 mM LiCI, pH=8) and 2 μL of the agonist Cortistatin-14 (CPC Scientific, catalog CORT-002) are added to each well. Final concentrations of agonists were […] Cortistatin-14. Final concentrations of DMSO were kept consistent across the plate. Plates were incubated in the dark for 1 hr at 37° C. and then for 1 hr at room temperature. IP-1 standards and HTRF detection reagents were added according to the IP-One—Gq Kit purchased from Cisbio (part number 621PAPEJ) and incubated in the dark for 1 hr at room temperature. The plate was read on a Molecular Devices SpectraMax iD5 plate reader. The HTRF ratio was calculated from the raw data and graphed using GraphPad Prism to calculate an IC50 value for each compound.
The activity ranges are denoted as follows: “+++++” denotes antagonist activity <100 nM; “++++” denotes antagonist activity between 100 and 500 nM; “+++” denotes activity between 501 and 1000 nM; “++” denotes activity between 1001 and 2500 nM; and “+” denotes activity >2500 nM.

Q: `COc1ccc(C(=O)NC2CCC(Nc3ccc(C#N)c(C(F)(F)F)c3)CC2)cc1` (stereo not drawn) [Example 4, N-[4-[4-cyano-3-(trifluoromethyl)anilino]cyclohexyl]-4-methoxy-benzamide] was tested. Which IC50 did it give?
A: 100 to 500 nM

Q: For `O=C(N[C@H]1CC[C@@H](Nc2cc(C(F)(F)F)cc(C(F)(F)F)c2)CC1)c1ccc(F)cc1` [Example 6, N-((1S,4S)-4-((3,5-bis(trifluoromethyl)phenyl)amino)cyclohexyl)-4-fluorobenzamide], which IC50 is on record?
A: 1000 to 2500 nM

Q: For `O=C(N[C@H]1CC[C@@H](Nc2cc(Cl)nc(C(F)(F)F)c2)CC1)c1ccc(F)cc1` [Example 7, N-(1S,4S)-[4-[[2-chloro-6-(trifluoromethyl)-4-pyridyl]amino]cyclohexyl]-4-fluoro-benzamide], which IC50 is on record?
A: 501 to 1000 nM

Q: With `O=C(N[C@H]1CC[C@@H](Nc2cc(C3CC3)nc(C(F)(F)F)c2)CC1)c1ccc(F)cc1` [Example 8, N-(1S, 4S)-[4-[[2-cyclopropyl-6-(trifluoromethyl)-4-pyridyl]amino]cyclohexyl]-4-fluoro-benzamide] as the compound, how does the IC50 read?
A: 1000 to 2500 nM

Q: `COc1ccc(C(=O)N[C@H]2CC[C@@H](Nc3cc(Nc4cccc(C)c4)nc(C(F)(F)F)c3)CC2)cc1` [Example 9, 4-methoxy-N-[4-[[2-(3-methylanilino)-6-(trifluoromethyl)-4-pyridyl]amino]cyclohexyl]benzamide] was tested. Which IC50 did it give?
A: 1000 to 2500 nM

Q: How did the IC50 turn out when `O=C(N[C@H]1CC[C@@H](Nc2cc(C(F)(F)F)nc(Nc3ccccc3)n2)CC1)c1ccc(F)cc1` [Example 10, N-(1S,4S)-[4-[[2-anilino-6-(trifluoromethyl)pyrimidin-4-yl]amino}cyclohexyl]-4-fluoro-benzamide] was run?
A: 1000 to 2500 nM

Q: How did the IC50 turn out when `CCN(C)c1nc(N[C@H]2CC[C@@H](NC(=O)c3ccc(N(C)C)cc3)CC2)cc(C(F)(F)F)n1` [Example 11, 4-(dimethylamino)-N-(1S,4S)-[4-[[2-[ethyl(methyl)amino]-6-(trifluoromethyl)pyrimidin-4-yl]amino]cyclohexyl] benzamide] was run?
A: 100 to 500 nM

Q: With `CCNc1nc(N[C@H]2CC[C@@H](NC(=O)c3ccc(OC)cc3)CC2)cc(C(F)(F)F)n1` [Example 12, N-(1S,4S)-[4-[[2-(ethylamino)-6-(trifluoromethyl)pyrimidin-4-yl]amino]cyclohexyl]-4-methoxy-benzamide] as the compound, how does the IC50 read?
A: > 2500 nM

Q: `O=C(N[C@H]1CC[C@@H](Nc2cc(C(F)(F)F)cc(C(F)(F)F)c2)CC1)c1ccccc1` [Example 13, N-((1S,4S)-4-((3,5-bis(trifluoromethyl)phenyl)amino)cyclohexyl)benzamide] was tested. Which IC50 did it give?
A: > 2500 nM

Q: `COc1ccc(C(=O)N[C@H]2CC[C@@H](Nc3cc(C(F)(F)F)cc(C(F)(F)F)c3)CC2)cc1` [Example 14, N-((1S,4S)-4-((3,5-bis(trifluoromethyl)phenyl)amino)cyclohexyl)-4-methoxybenzamide] was tested. Which IC50 did it give?
A: > 2500 nM

Q: With `CN(C)c1cccc(C(=O)N[C@H]2CC[C@@H](Nc3cc(C(F)(F)F)nc(C(F)(F)F)c3)CC2)c1` [Example 15, N-(1S,4S)-[4-[[2,6-bis(trifluoromethyl)-4-pyridyl]amino]cyclohexyl]-3-(dimethylamino)benzamide] as the compound, how does the IC50 read?
A: 100 to 500 nM

Q: Which IC50 does the source give for `COc1ccc(C(=O)N[C@H]2CC[C@@H](Nc3cc(C(F)(F)F)nc(N(C)C)n3)CC2)cc1` [Example 16, N-(1S,4S)-[4-[[2-(dimethylamino)-6-(trifluoromethyl)pyrimidin-4-yl]amino]cyclohexyl]-4-methoxy-benzamide] here?
A: 501 to 1000 nM

Q: `N#Cc1ccc(N[C@H]2CC[C@@H](NC(=O)c3cnn(CC(F)(F)F)c3)CC2)cc1C(F)(F)F` [Example 17, N-((1s,4s)-4-((4-cyano-3-(trifluoromethyl)phenyl)amino)cyclohexyl)-1-(2,2,2-trifluoroethyl)-1H-pyrazole-4-carboxamide] was tested. Which IC50 did it give?
A: < 100 nM

Q: For `COc1ccc(C(=O)N[C@@H]2CCC[C@H](Nc3cc(C(F)(F)F)nc(C(F)(F)F)c3)C2)cc1` [example 1, N-((1R,3S)-3-((2,6-bis(trifluoromethyl)pyridin-4-yl)amino)cyclohexyl)-4-methoxybenzamide], which IC50 is on record?
A: > 2500 nM

Q: With `O=C(N[C@H]1CC[C@@H](Nc2cc(C(F)(F)F)nc(C(F)(F)F)c2)CC1)c1ccccc1` [example 3, N-((1S,4S)-4-((2,6-bis(trifluoromethyl)pyridin-4-yl)amino)cyclohexyl)benzamide] as the compound, how does the IC50 read?
A: 501 to 1000 nM
